# From article PMC5895803, “Inhibition of cancer stem cell like cells by a synthetic retinoid” (Nature Communications, 2018)
# pIC50, pKd: −log10 of the molar value.
# Experiments:
# [1] = set-up: method as in doi:10.1016/j.jaad.2003.11.002; details: cited from earlier work
# [2] = tested on: B16-F1 TRCs; experiment: Colony growth of B16-F1 TRCs in 90-Pa 3D soft fibrin gels; type: cell-based, murine; details: for Rescue of TRC growth from inhibitory effects of WYC-209 by pretreatment: pretreated 3 h before 0.1 or 1 μM WYC-209, day 5; for inhibition at 10 µM: B16-F1, 10 μM; for Rescue of TRC growth from inhibitory effects of Tazarotene by pretreatment: pretreated 3 h before 0.1 or 1 μM Tazarotene
# [3] = target: mouse RARs; set-up: method as in earlier work; details: ref 1 (supplement); read-out: published Kd values to mouse RARs; cited from earlier work
# [4] = tested on: B16-F1 TRCs; experiment: Cell cycle analysis (BrdU flow cytometry), S phase of TRCs; type: cell-based, murine; details: 10 μM, 24 hours
# Method: For Annexin-V and PI staining to quantify cell apoptosis, treated TRCs were isolated from 3D fibrin gel by using 5 mg mL^−1 Dispase II (Sigma), cells were labeled with FITC-conjugated Annexin-V and PI according to the manufacturer’s instruction (Biolegend). Data were acquired on a BD Cantoll (BD biosciences) and analyzed with FlowJo software. For BrdU staining to quantify cell proliferation, cells were labeled with FITC-conjugated anti-BrdU antibody according to the manufacturer’s instruction (FITC BrdU Flow Kit, BD Biosciences) and then data were acquired on an Accuri C6 (BD Biosciences) and analyzed with BD Accuri C6 software.
# Supplementary Figure 13. WYC-209 blocks S phase of TRCs. Different cancer cell lines cultured in 3D soft fibrin gel on day 0, then treated with 0.1, 1, or 10 μM WYC-209, WYC-209A, WYC-209B on day 4, isolated cells after 24 hours and labeled with FITC-conjugated anti-BrdU antibody for cell cycle analysis, 10 μM ATRA and Tazarotne as positive controls. (a) Representative images of flow cytometry in different conditions. (b) Quantification of S phase ratio in different conditions. Mean ± s.e.m.; n=3 independent experiments; * P<0.05; ** P<0.01; *** P<0.001 (Student’s t-test).
# (1 picture or pasted object on this page, not shown here)
# [5] = Water solubility; details: pH 7.4, aqueous buffer, kinetic from dmso stock
# [6] = tested on: melanoma TRCs; set-up: method as in PMID 25099074; details: high concentrations (1 and 100 μM); cited from earlier work
# [7] = target: T1, CYP 2C19 (Homo sapiens, UniProt P33261); experiment: Cytochromes enzyme inhibition assay, human liver microsomes; type: in vitro ADME; details: substrate S-mephenytoin (35 µM)
# T1 construct: from tissue; host or cells: human liver microsomes
# T1 sequence (P33261 whole entry): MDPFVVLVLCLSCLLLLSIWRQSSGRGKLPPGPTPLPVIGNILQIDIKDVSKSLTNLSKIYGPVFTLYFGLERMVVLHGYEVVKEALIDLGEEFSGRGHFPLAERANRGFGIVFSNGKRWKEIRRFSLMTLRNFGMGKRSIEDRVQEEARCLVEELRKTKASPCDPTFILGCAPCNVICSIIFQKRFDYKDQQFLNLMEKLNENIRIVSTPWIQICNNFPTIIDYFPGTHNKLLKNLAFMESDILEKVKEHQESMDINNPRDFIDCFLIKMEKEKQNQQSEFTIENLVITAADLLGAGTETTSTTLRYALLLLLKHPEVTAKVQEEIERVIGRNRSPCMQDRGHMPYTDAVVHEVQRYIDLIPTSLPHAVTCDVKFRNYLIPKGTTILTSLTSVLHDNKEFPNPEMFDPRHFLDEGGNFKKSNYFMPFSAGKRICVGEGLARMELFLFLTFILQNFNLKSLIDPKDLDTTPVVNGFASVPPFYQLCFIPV
# [8] = tested on: human malignant melanoma A375; experiment: Colony growth of A375 TRCs in 90-Pa fibrin gels; type: cell-based; details: pretreated 3 h before 0.1 or 1 μM WYC-209, day 7
# Method: Salmon fibrinogen and thrombin were purchased from Reagent Proteins (CA, USA). 3D fibrin gels were prepared as described previously[5],[6]. In brief, fibrinogen was diluted into 2 mg mL^−1 with T7 buffer (pH 7.4, 50 mM Tris, 150 mM NaCl). Cells were detached from 2D rigid dishes and cell density was adjusted to 10^4 cells per mL. Fibrinogen and cell solution mixture were made by mixing the same volume of fibrinogen solution and cell solution, resulting in 1 mg mL^−1 fibrinogen and 5000 cells per mL in the mixture fibrin gels. A volume of 50 μL cell/fibrinogen mixture was seeded into each well of 96-well plate and mixed well with pre-added 1 μL thrombin (100 U mL^−1). The cell culture plate was then incubated in 37 °C cell culture incubator for 10 min. Finally, 200 μL of DMEM medium containing 10% FBS and antibiotics was added.
# [9] = Mus musculus, treated on day 0, day 5
smiles,measurement,setting,value
CC1(C)CC[S+]([O-])c2ccc(C#Cc3ccc(C(=O)O)cn3)cc21 (centres unmarked) [AGN 190844],Activity after oxidation of the sulfur atom on Tazarotene,[1],loses its activity
"CCc1ccc(C2=CC(C)(C)Sc3ccc(C#Cc4ccc(C(=O)O)cc4)cc32)cc1 [AGN-194310, reference compound]",Rescue of TRC growth from inhibitory effects of WYC-209 by pretreatment,[2],rescued the TRC growth
"CC1=C(/C=C/C(C)=C/C=C/C(C)=C/C(=O)O)C(C)(C)CCC1 [ATRA, all-trans retinoic acid, reference compound]",pKd,[3],9.44 to 9.70
same,Decrease of S phase of TRCs,[4],~55%
same,inhibition at 10 µM,[2]; [9],80%
"CC1(C)CC=C(c2cnc3ccccc3c2)c2cc(C(=O)Nc3ccc(C(=O)O)cc3)ccc21 [BMS195614, reference compound]",Impact of antagonist alone on TRC growth,[2],no impact on TRC growth
same,Rescue of TRC growth from inhibitory effects of Tazarotene by pretreatment,[2],rescuing effect was minimal
same,Rescue of TRC growth from inhibitory effects of WYC-209 by pretreatment,[2],rescued the TRC growth
"COCCOCOc1cc2ccc(-c3ccc(C(=O)O)cc3)cc2cc1C12CC3CC(CC(C3)C1)C2 [CD2665, reference compound]",Impact of antagonist alone on TRC growth,[2],no impact on TRC growth
same,Rescue of TRC growth from inhibitory effects of Tazarotene by pretreatment,[2],rescuing effect was minimal
same,Rescue of TRC growth from inhibitory effects of WYC-209 by pretreatment,[2],rescued the TRC growth
"CC(=O)N1CCN(c2ccc(OCC3COC(Cn4ccnc4)(c4ccc(Cl)cc4Cl)O3)cc2)CC1 (centres unmarked) [Ketoconazole, reference compound]",solubility at 1 h,[5]; PBS (pH 7.4),49.3 µM
"CC(C)NCC(O)COc1cccc2ccccc12 (centres unmarked) [Propranolol, reference compound]",solubility at 1 h,[5],> 100 µM
"CCOC(=O)c1ccc(C#Cc2ccc3c(c2)C(C)(C)CCS3)nc1 [Tazarotene, reference compound]",Decrease of S phase of TRCs,[4],~ 45%
same,Growth inhibition at 10 μM,"[2]; 10 μM, treated on day 0, day 5, 10 µM",71%
same,inhibition at 10 µM,[2]; [9],71.2%
same,pIC50,"[2]; Mus musculus, B16-F1 in 90-Pa fibrin gels, treated on day 0, colony size on day 5",5.76
N.N.[Cl][Pt][Cl] [cisplatin],TRCs not killed,[6],20–30%
COc1cccc2c1C(=O)c1c(O)c3c(c(O)c1C2=O)C[C@@](O)(C(=O)CO)C[C@@H]3O[C@H]1C[C@H](N)[C@H](O)[C@H](C)O1 [doxorubicin],TRCs not killed,[6],20–30%
"COc1ccc2[nH]c([S+]([O-])Cc3ncc(C)c(OC)c3C)nc2c1 (centres unmarked) [omeprazole, reference compound]",pIC50,[7],5.30
"COC(=O)CC[C@H](NC(=O)[C@H](CC(=O)OC)NC(=O)OCc1ccccc1)C(=O)N[C@H](C(=O)N[C@@H](CC(=O)OC)C(=O)CF)C(C)C [z-DEVD-FMK, reference compound]",Rescue of A375 TRC growth from WYC-209 inhibition by pretreatment,[8],substantially rescued growth
same,Rescue of TRC growth from inhibitory effects of Tazarotene by pretreatment,[2],could not rescue growth
same,Rescue of TRC growth from inhibitory effects of WYC-209 by pretreatment,[2],substantially rescued growth
